From patent US8440697B2, “Treatment of heart failure” (Heart Metabolics Limited, priority 2007, dated 2013)

Key:
symptomatic HCM patients [1] = test: 31P cardiac magnetic resonance spectroscopy, resting myocardial energetics (PCr/γ-ATP ratio) in HCM study; type: in vivo, human
From the text: (§1) The study was approved by the South Birmingham Research Ethics Committee and the investigation conforms with the principles outlined in the Declaration of Helsinki All study participants provided written informed consent. The study was a randomized, double blind, placebo-controlled parallel-group design of minimum 3 months duration. FIG. 3 represents a flow chart of the study. The pre-defined primary end point was peak oxygen consumption (peak VO2). Pre-defined secondary end points were symptomatic status, resting myocardial energetics (PCr/γ-ATP ratio) and diastolic function at rest and during exercise (nTTPF). 33 controls of similar age and gender distribution were recruited for comparison with baseline data of HCM patients. All controls had no history or symptoms of any cardiovascular disease with normal ECG and echocardiogram (LVEF≧55%).
Patients were recruited from dedicated cardiomyopathy clinics at The Heart Hospital, University College London Hospitals, London and Queen Elizabeth Hospital, Birmingham, UK between 2006 and 2008. […]
In vivo myocardial energetics were measured using a MRS at 3-Tesla Phillips Achieva 3T scanner (Shivu G N, Abozguia K, Phan T T, Ahmed I, Henning A, Frenneaux M. (31)P magnetic resonance spectroscopy to measure in vivo cardiac energetics in normal myocardium and hypertrophic cardiomyopathy: Experiences at 3T. Eur J Radiol 2008). A java magnetic resonance user interface v3.0 (jMRUI) was used for analysis (see Naressi A, Couturier C, Castang I, de Beer R, Graveron-Demilly D. Java-based graphical user interface for MRUI, a software package for quantitation of in vivo/medical magnetic resonance spectroscopy signals. Comput Biol Med 2001; 31(4):269-286)). […] Data were analyzed by an investigator who was blinded to the participants' clinical status. […]
(§2) Following baseline studies, patients were randomized in a double-blind fashion to receive either perhexiline (n=25) or placebo (n=21) 100 mg OD. […] At the end of study, patients were re-evaluated as described earlier.
Data were analyzed using SPSS ver. […]

symptomatic HCM patients [2] = test: Cardiopulmonary exercise test (peak oxygen consumption), randomized double-blind placebo-controlled study in HCM; type: in vivo, human
From the text: as §1
(§3) Patients were recruited from dedicated cardiomyopathy clinics at The Heart Hospital, University College London Hospitals, London and Queen Elizabeth Hospital, Birmingham, UK between 2006 and 2008. Inclusion criteria were 18 to 80 years old symptomatic HCM patients (predominant symptom breathlessness) in sinus rhythm with reduced peak VO2 (<75% of predicted for age and gender) and no significant LVOT obstruction at rest (gradient<30 mmHg). Exclusion criteria were presence of epicardial coronary artery disease, abnormal liver function test, concomitant use of amiodarone or selective serotonin reuptake inhibitors (due to potential drug interactions with perhexiline), peripheral neuropathy and women of childbearing potential. Diabetic patients were also excluded to maintain the blindness of the study as Perhexiline may lead to a reduction in plasma glucose in such patients necessitating a reduction in anti-diabetic therapy. 46 consecutive consenting patients who met these entry criteria were recruited into the study.
This was performed using a Schiller CS-200 Ergo-Spiro exercise machine which was calibrated before every study. […]
as §2
(§4) Data were analyzed using SPSS ver. 15.0 for Window and Microsoft Office Excel 2007, and expressed as Mean±Standard Deviation (SD). Comparison of continuous variables between Perhexiline and Placebo baseline data were determined by unpaired Student's t-test (2-tail) if variables were normally distributed and the Mann-Whitney U-test if the data were non-normally distributed. […]

symptomatic HCM patients [3] = test: Radionuclide ventriculography, diastolic filling (nTTPF) at rest and during exercise in HCM study; type: in vivo, human
From the text: as §1
Patients were recruited from dedicated cardiomyopathy clinics at The Heart Hospital, University College London Hospitals, London and Queen Elizabeth Hospital, Birmingham, UK between 2006 and 2008. Inclusion criteria were 18 to 80 years old symptomatic HCM patients (predominant symptom breathlessness) in sinus rhythm with reduced peak VO2 (<75% of predicted for age and gender) and no significant LVOT obstruction at rest (gradient<30 mmHg). […]
Diastolic filling were assessed by equilibrium R-wave gated blood pool scintigraphy using a standard technique at rest and during graded semi erect exercise on a cycle ergometer (Atherton J J, Moore T D, Lele S S et al. Diastolic ventricular interaction in chronic heart failure. Lancet 1997; 349 (9067):1720-1724; Lele S S, Macfarlane D, Morrison S, Thomson H, Khafagi F, Frenneaux M. Determinants of exercise capacity in patients with coronary artery disease and mild to moderate systolic dysfunction. Role of heart rate and diastolic filling abnormalities. Eur Heart J 1996; 17(2):204-212). Peak left ventricular filling rate in terms of end-diastolic count per second (EDC/s) and time to peak filling normalised for R—R interval (nTTPF) in milliseconds were measured at rest and during exercise (50% of heart rate reserve). […]
as §2, §4

symptomatic HCM patients [4] = test: Symptomatic status assessment (NYHA class, Minnesota Living with heart failure questionnaire) in HCM study; type: in vivo, human
From the text: as §1, §3
All HCM patients filled in Minnesota Living with heart failure questionnaire and were also assessed for NHYA class.
(§5) Following baseline studies, patients were randomized in a double-blind fashion to receive either perhexiline (n=25) or placebo (n=21) 100 mg OD. Serum perhexiline levels were obtained at 1 and 4 weeks after initiation of the drug. Dose adjustments were advised by an unblinded physician according to serum level to achieve therapeutic level and to avoid drug toxicity. Identical dosage adjustments were also made for randomly allocated placebo-treated patients by the unblinded observer to ensure that blinding of the investigators was maintained. At the end of study, patients were re-evaluated as described earlier.
Data were analyzed using SPSS ver. 15.0 for Window and Microsoft Office Excel 2007, and expressed as Mean±Standard Deviation (SD). Comparison of continuous variables between Perhexiline and Placebo baseline data were determined by unpaired Student's t-test (2-tail) if variables were normally distributed and the Mann-Whitney U-test if the data were non-normally distributed. ANCOVA with baseline values as covariates was performed to test for the significance of differences in the perhexiline versus placebo group after treatment. For the primary end point, the sample size required to detect a change in peak Vo2 of 3 ml/kg/min versus placebo group with a power of 90% and probability of 5% is 44. 30 patients will be required to identify a 5% change in cardiac PCr/ATP ratio with a power of 90% and a p value of <0.05. 40 patients will be required to detect a change ≧25% in nTTPF with power of 0.99 with probability of 5%. Therefore, we aimed to study 50 patients including the drop-outs, 32 of them will take part in the MRS study.

symptomatic HCM patients [5] = test: Side effects and deaths in HCM study; type: in vivo
From the text: as §1, with “(nTTPF).” for “(nTTPF). 33 controls of similar age and gender distribution were recruited for comparison with baseline data of HCM patients. All controls had no history or symptoms of any cardiovascular disease with normal ECG and echocardiogram (LVEF≧55%).”
Diabetic patients were also excluded to maintain the blindness of the study as Perhexiline may lead to a reduction in plasma glucose in such patients necessitating a reduction in anti-diabetic therapy. 46 consecutive consenting patients who met these entry criteria were recruited into the study.
as §5

[6] = perhexiline group (n=25), during the first week of treatment

SMILES: C1CCC(C(CC2CCCCN2)C2CCCCC2)CC1 (centres unmarked) [perhexiline, 2-(2,2-dicyclohexylethyl) piperidine]
- Effect on PCr/ATP ratio (energetic status of heart), in words (symptomatic HCM patients [1]; FIG. 5B legend, unchanged in placebo group): improves
- PCr/γATP ratio after treatment (symptomatic HCM patients [1]; perhexiline group, resting, after treatment, p=0.003 vs placebo): 1.73±0.02
- PCr/γATP ratio at baseline (symptomatic HCM patients [1]; perhexiline group, resting, before treatment, mean±SD): 1.27±0.02
- Effect on peak VO2 (exercise capacity), in words (symptomatic HCM patients [2]; FIG. 5A legend, p=0.003 vs placebo): increases
- Peak VO2 at baseline (symptomatic HCM patients [2]; perhexiline group (n=25), before treatment, mean±SD): 22.2 ± 0.2 mL/min/kg
- Peak VO2 after treatment (symptomatic HCM patients [2]; perhexiline group, 100 mg OD titrated to serum level, minimum 3 months, p=0.003 vs placebo response): 24.29 ± 0.2 mL/min/kg
- Increase in Peak VO2 after treatment (symptomatic HCM patients [2]; perhexiline group, after treatment vs baseline, placebo fell by -1.23, p=0.003): 2.09 mL/min/kg
- Effect on nTTPF response to exercise, in words (symptomatic HCM patients [3]; FIG. 5D legend, p=0.03 vs placebo): normalises the response to similar to that seen in healthy controls
- nTTPF at rest on therapy (symptomatic HCM patients [3]; perhexiline group, on therapy, at rest): 0.19 ± 0.003 s
- nTTPF during exercise on therapy (symptomatic HCM patients [3]; perhexiline group, on therapy, exercise at 50% of heart rate reserve): 0.19 ± 0.004 s
- nTTPF change rest to exercise on therapy (symptomatic HCM patients [3]; perhexiline group, on therapy, p=0.03 between perhexiline and placebo response): 0.00 ± 0.003 s
- NYHA score (of breathlessness), in words (symptomatic HCM patients [4]; FIG. 5E legend): falls (improves)
- Minnesota living with heart failure questionnaire score, in words (symptomatic HCM patients [4]; FIG. 5F legend): falls (=improved quality of life)
- Minnesota Living with heart failure questionnaire score after treatment (symptomatic HCM patients [4]; perhexiline group, after treatment, fall in score = improvement, p<0.001 vs placebo): 28±0.75
- Minnesota Living with heart failure questionnaire score at baseline (symptomatic HCM patients [4]; perhexiline group, before treatment): 36.13±0.94
- Patients with worsening in NYHA classification (symptomatic HCM patients [4]; perhexiline group, placebo 20 percent): 8%
- Patients with improvements in NYHA classification (symptomatic HCM patients [4]; perhexiline group, placebo 30 percent): 67%
- Side effects: dizziness (number of patients) (symptomatic HCM patients [5]; [6]): 2
- Side effects: transient nausea (number of patients) (symptomatic HCM patients [5]; [6]): 3
- Deaths during the study period (symptomatic HCM patients [5]; whole study, perhexiline and placebo groups): no deaths
